Measured values as given in patent publication US20240252488A1 (KOREA RESEARCH INSTITUTE OF CHEMICAL TECHNOLOGY, priority 2020, published 2024).

Experiments:
[1] = test system: FADD−/− Jurkat cells; test: Necroptosis inhibition assay, TNF-α-induced necroptosis (CellTiter-Glo 2.0); format: cell-based, human; details: TNF-α 15 ng/mL; for Necroptosis inhibition assay (Rescue %) 1 μM: compound 1 μM; for Necroptosis inhibition assay (Rescue %) 10 μM: compound 10 μM
Summary of the method: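 Tested at three fixed concentrations (0.1, 1, 10 μM final) with a 30-minute room-temperature preincubation ahead of 15 ng/mL TNF-α challenge lasting 20 to 24 hours. Inhibition rate and cytotoxicity derive from ATP luminescence.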

[2] = molecular target: T1, MLKL (Homo sapiens, UniProt Q8NB16); test: MLKL degradation assay in HepG2 cell line (western blot); format: cell-based; set-up: endogenous in cells; host or cells: HepG2 or HaCaT; details: cell line not given; for Degradation assay (Degradation %) 1 μM: compound 1 μM; for Degradation assay (Degradation %) 10 μM: compound 10 μM
T1 sequence (Q8NB16 1-471): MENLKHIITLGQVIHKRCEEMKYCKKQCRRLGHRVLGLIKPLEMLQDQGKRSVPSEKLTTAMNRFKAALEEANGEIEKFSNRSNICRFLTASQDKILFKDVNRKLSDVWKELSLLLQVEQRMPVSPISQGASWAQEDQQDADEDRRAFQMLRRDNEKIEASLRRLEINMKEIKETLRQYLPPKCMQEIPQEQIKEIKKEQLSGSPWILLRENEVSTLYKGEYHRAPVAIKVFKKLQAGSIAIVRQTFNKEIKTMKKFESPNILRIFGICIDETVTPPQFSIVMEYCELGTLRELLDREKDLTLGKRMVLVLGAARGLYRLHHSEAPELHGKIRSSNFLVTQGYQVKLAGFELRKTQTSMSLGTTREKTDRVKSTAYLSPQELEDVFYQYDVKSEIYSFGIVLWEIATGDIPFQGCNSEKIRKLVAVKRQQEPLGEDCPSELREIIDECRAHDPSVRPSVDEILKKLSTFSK
Summary of the method: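 Degradation is judged from MLKL band intensity on immunoblots of HepG2 lysates taken after 20-24 hours of compound at final 1 or 10 μM.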

[3] = molecular target: T1, MLKL; test: Measurement of binding affinity with MLKL receptor (competitive binding assay, Kd); set-up: made in house; host or cells: HEK 293 cell line (T7 phage in E. coli BL21-derived host is also described)
Summary of the method: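 Competitive displacement of MLKL, expressed in HEK 293 cells and DNA-tagged for qPCR, from immobilized ligand on biotin-blocked beads. Compounds were added from 111× DMSO stocks (final DMSO 0.9%). Kinase left in the eluates was quantified by qPCR to give Kd.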

Compound | Degradation assay (Degradation %) 1 μM [2] [%] | Degradation assay (Degradation %) 10 μM [2] [%] | Kd [3] [nM] | Necroptosis inhibition assay (Rescue %) 1 μM [1] [%] | Necroptosis inhibition assay (Rescue %) 10 μM [1] [%] | Necroptosis inhibition assay (Rescue %) 1 μM ([1]; FADD−/− Jurkat cells) [%] | Necroptosis inhibition assay (Rescue %) 10 μM ([1]; FADD−/− Jurkat cells) [%]
Nc1ncc(-c2cnn(C3CCN(CCC4CCN(C(=O)CNc5cccc6c5C(=O)N(C5CCC(=O)NC5=O)C6=O)CC4)CC3)c2)cc1C(=O)OC(C(=O)Nc1ccc(F)cc1)c1ccccc1 (stereo not shown) [TDH-303, 2-((4-fluorophenyl)amino)-2-oxo-1-phenylethyl 2-amino-5-(1-(1-(2-(1-((2-(2,6-dioxopiperidin-3-yl)-1,3-dioxoisoindolin-4-yl)glycyl)piperidin-4-yl)ethyl)piperidin-4-yl)-1H-pyrazol-4-yl)nicotinate] | 82.82 | 82.05 | 13 | 10.34 | 17.69 |  | 
Nc1ncc(-c2cnn(C3CCN(CCC4CCN(C(=O)Cc5cccc(NC6=CC(=O)N(C7CCC(=O)NC7=O)C6=O)c5)CC4)CC3)c2)nc1C(=O)O[C@@H](C(=O)Nc1ccc(F)cc1)c1ccccc1 (stereo partly drawn) [TDH-518, (R)-2-((4-fluorophenyl)amino)-2-oxo-1-phenylethyl 3-amino-6-(1-(1-(2-(1-(2-(3-((1-(2,6-dioxopiperidin-3-yl)-2,5-dioxo-2,5-dihydro-1H-pyrrol-3-yl)amino)phenyl)acetyl)piperidin-4-yl)ethyl)piperidin-4-yl)-1H-pyrazol-4-yl)pyrazine-2-carboxylate] | 89.77 | 88.59 | 4.3 |  |  | 12.44 | −8.57
Nc1ncc(-c2cnn(C3CCN(CC4CCN(C(=O)COc5ccc6nnn(C7CCC(=O)NC7=O)c(=O)c6c5)CC4)CC3)c2)nc1C(=O)O[C@@H](C(=O)Nc1ccc(F)cc1)c1ccccc1 (stereo partly drawn) [TDH-169, (R)-2-((4-fluorophenyl)amino)-2-oxo-1-phenylethyl 3-amino-6-(1-(1-((1-(2-((3-(2,6-dioxopiperidin-3-yl)-4-oxo-3,4-dihydrobenzo[d][1,2,3]triazin-6-yl)oxy)acetyl)piperidin-4-yl)methyl)piperidin-4-yl)-1H-pyrazol-4-yl)pyrazine-2-carboxylate] | 71.77 | 58.09 | 2 | 68.09 | 50.74 |  | 
Nc1ncc(-c2cnn(C3CCN(CCCCCCNC(=O)CNc4ccc5c(c4)C(=O)N(C4CCC(=O)NC4=O)C5=O)CC3)c2)nc1C(=O)O[C@@H](C(=O)Nc1ccc(F)cc1)c1ccccc1 (stereo partly drawn) [TDH-132, (R)-2-((4-fluorophenyl)amino)-2-oxo-1-phenylethyl 3-amino-6-(1-(1-(6-(2-((2-(2,6-dioxopiperidin-3-yl)-1,3-dioxoisoindolin-5-yl)amino)acetamido)hexyl)piperidin-4-yl)-1H-pyrazol-4-yl)pyrazine-2-carboxylate] | 40.32 | 50.03 | 1.2 | 75.06 | 54.76 |  | 
COc1cccc(NC(=O)[C@H](OC(=O)c2nc(-c3cnn(C4CCN(CCCN5CCN(C(=O)COc6ccc7c(c6)C(=O)N(C6CCC(=O)NC6=O)C7=O)CC5)CC4)c3)cnc2N)c2ccccc2)c1 (stereo partly drawn) [TDH-486, (R)-2-((3-methoxyphenyl)amino)-2-oxo-1-phenylethyl 3-amino-6-(1-(1-(3-(4-(2-((2-(2,6-dioxopiperidin-3-yl)-1,3-dioxoisoindolin-5-yl)oxy)acetyl)piperazin-1-yl)propyl)piperidin-4-yl)-1H-pyrazol-4-yl)pyrazine-2-carboxylate] | 85.37 | 88.15 | 2.5 |  |  | 77.72 | 34.5

Second part, led by results:

Degradation assay (Degradation %) 1 μM [2] [%] | Degradation assay (Degradation %) 10 μM [2] [%] | Kd [3] [nM] | Compound | Necroptosis inhibition assay (Rescue %) 1 μM [1] [%] | Necroptosis inhibition assay (Rescue %) 10 μM [1] [%] | Necroptosis inhibition assay (Rescue %) 1 μM ([1]; FADD−/− Jurkat cells) [%] | Necroptosis inhibition assay (Rescue %) 10 μM ([1]; FADD−/− Jurkat cells) [%]
88.25 | 83.83 | 8.9 | Nc1ncc(-c2cnn(C3CCN(C(=O)COC4CCN(C(=O)C5CCN(c6ccc7c(c6)C(=O)N(C6CCC(=O)NC6=O)C7=O)CC5)CC4)CC3)c2)nc1C(=O)O[C@@H](C(=O)Nc1ccc(F)cc1)c1ccccc1 (stereo partly drawn) [TDH-398, (R)-2-((4-fluorophenyl)amino)-2-oxo-1-phenylethyl 3-amino-6-(1-(1-(2-((1-(1-(2-(2,6-dioxopiperidin-3-yl)-1,3-dioxoisoindolin-5-yl)piperidine-4-carbonyl)piperidin-4-yl)oxy)acetyl)piperidin-4-yl)-1H-pyrazol-4-yl)pyrazine-2-carboxylate] | 36.81 | 30.39 |  | 
56.44 | 44.97 | 5.3 | Nc1ncc(-c2cnn(C3CCN(CCC4CCN(C(=O)C5CCN(c6ccc7nnn(C8CCC(=O)NC8=O)c(=O)c7c6)CC5)CC4)CC3)c2)nc1C(=O)OC(C(=O)Nc1ccc(F)cc1)c1ccccc1 (stereo not shown) [TDH-290, 2-((4-fluorophenyl)amino)-2-oxo-1-phenylethyl 3-amino-6-(1-(1-(2-(1-(1-(3-(2,6-dioxopiperidin-3-yl)-4-oxo-3,4-dihydrobenzo[d][1,2,3]triazin-6-yl)piperidine-4-carbonyl)piperidin-4-yl)ethyl)piperidin-4-yl)-1H-pyrazol-4-yl)pyrazine-2-carboxylate] | 90.57 | 84.93 |  | 
50.93 | 42.16 | 5.4 | Nc1ncc(-c2cnn(C3CCN(C[C@H]4CC[C@H](CNc5ccc6c(c5)C(=O)N(C5CCC(=O)NC5=O)C6=O)CC4)CC3)c2)nc1C(=O)O[C@@H](C(=O)Nc1ccc(F)cc1)c1ccccc1 (stereo partly drawn) [TDH-352, (R)-2-((4-fluorophenyl)amino)-2-oxo-1-phenylethyl 3-amino-6-(1-(1-(((1r,4r)-4-(((2-(2,6-dioxopiperidin-3-yl)-1,3-dioxoisoindolin-5-yl)amino)methyl)cyclohexyl)methyl)piperidin-4-yl)-1H-pyrazol-4-yl)pyrazine-2-carboxylate] | 11.36 | 5.3 |  | 
92.44 | 94.32 | 19 | Nc1ncc(-c2cnn(C3CCN(CCC4CCN(c5cc6c(cc5F)C(=O)N(C5CCC(=O)NC5=O)C6=O)CC4)CC3)c2)nc1C(=O)O[C@@H](C(=O)Nc1ccc(F)cc1)c1ccccc1 (stereo partly drawn) [TDH-520, (R)-2-((4-fluorophenyl)amino)-2-oxo-1-phenylethyl 3-amino-6-(1-(1-(2-(1-(2-(2,6-dioxopiperidin-3-yl)-6-fluoro-1,3-dioxoisoindolin-5-yl)piperidin-4-yl)ethyl)piperidin-4-yl)-1H-pyrazol-4-yl)pyrazine-2-carboxylate] |  |  | 63.56 | 36.11
80.37 | 87.27 | 0.53 | Nc1ncc(-c2cnn(C3CCN(C4CC5(CCN(CC6CCN(C(=O)COc7ccc8c(c7)C(=O)N(C7CCC(=O)NC7=O)C8=O)CC6)CC5)C4)CC3)c2)nc1C(=O)O[C@@H](C(=O)Nc1ccc(F)cc1)c1ccccc1 (stereo partly drawn) [TDH-442, (R)-2-((4-fluorophenyl)amino)-2-oxo-1-phenylethyl 3-amino-6-(1-(1-(7-((1-(2-((2-(2,6-dioxopiperidin-3-yl)-1,3-dioxoisoindolin-5-yl)oxy)acetyl)piperidin-4-yl)methyl)-7-azaspiro[3.5]nonan-2-yl)piperidin-4-yl)-1H-pyrazol-4-yl)pyrazine-2-carboxylate] |  |  | 58.16 | 21.7
75.28 | 74.89 | 0.79 | Nc1ncc(-c2cnn(C3CCN(C(=O)C4CCN(C(=O)C5CCN(c6cccc7nnn(C8CCC(=O)NC8=O)c(=O)c67)CC5)CC4)CC3)c2)nc1C(=O)O[C@@H](C(=O)Nc1ccc(F)cc1)c1ccccc1 (stereo partly drawn) [TDH-414, (R)-2-((4-fluorophenyl)amino)-2-oxo-1-phenylethyl 3-amino-6-(1-(1-(1-(1-(3-(2,6-dioxopiperidin-3-yl)-4-oxo-3,4-dihydrobenzo[d][1,2,3]triazin-5-yl)piperidine-4-carbonyl)piperidine-4-carbonyl)piperidin-4-yl)-1H-pyrazol-4-yl)pyrazine-2-carboxylate] |  |  | 17.52 | 13.19
